Data taken from ChEMBL document CHEMBL5678818, “Discovery of potent SOS1 inhibitors that block RAS activation via disruption of the RAS-SOS1 interaction” (Proc Natl Acad Sci U S A, 2019).

Legend:
[1] = biological target: Receptor-type tyrosine-protein kinase FLT3 (Homo sapiens) (UniProt P36888); assay: Inhibition of FLT3 (unknown origin) assessed as residual activity at 1000 nM by KINOMEscan analysis relative to control
[2] = biological target: T1, Ephrin type-B receptor 4 (Homo sapiens) (UniProt P54760); assay: Inhibition of EPHB4 (unknown origin) assessed as residual activity at 1000 nM by KINOMEscan analysis relative to control
T1 sequence (whole entry): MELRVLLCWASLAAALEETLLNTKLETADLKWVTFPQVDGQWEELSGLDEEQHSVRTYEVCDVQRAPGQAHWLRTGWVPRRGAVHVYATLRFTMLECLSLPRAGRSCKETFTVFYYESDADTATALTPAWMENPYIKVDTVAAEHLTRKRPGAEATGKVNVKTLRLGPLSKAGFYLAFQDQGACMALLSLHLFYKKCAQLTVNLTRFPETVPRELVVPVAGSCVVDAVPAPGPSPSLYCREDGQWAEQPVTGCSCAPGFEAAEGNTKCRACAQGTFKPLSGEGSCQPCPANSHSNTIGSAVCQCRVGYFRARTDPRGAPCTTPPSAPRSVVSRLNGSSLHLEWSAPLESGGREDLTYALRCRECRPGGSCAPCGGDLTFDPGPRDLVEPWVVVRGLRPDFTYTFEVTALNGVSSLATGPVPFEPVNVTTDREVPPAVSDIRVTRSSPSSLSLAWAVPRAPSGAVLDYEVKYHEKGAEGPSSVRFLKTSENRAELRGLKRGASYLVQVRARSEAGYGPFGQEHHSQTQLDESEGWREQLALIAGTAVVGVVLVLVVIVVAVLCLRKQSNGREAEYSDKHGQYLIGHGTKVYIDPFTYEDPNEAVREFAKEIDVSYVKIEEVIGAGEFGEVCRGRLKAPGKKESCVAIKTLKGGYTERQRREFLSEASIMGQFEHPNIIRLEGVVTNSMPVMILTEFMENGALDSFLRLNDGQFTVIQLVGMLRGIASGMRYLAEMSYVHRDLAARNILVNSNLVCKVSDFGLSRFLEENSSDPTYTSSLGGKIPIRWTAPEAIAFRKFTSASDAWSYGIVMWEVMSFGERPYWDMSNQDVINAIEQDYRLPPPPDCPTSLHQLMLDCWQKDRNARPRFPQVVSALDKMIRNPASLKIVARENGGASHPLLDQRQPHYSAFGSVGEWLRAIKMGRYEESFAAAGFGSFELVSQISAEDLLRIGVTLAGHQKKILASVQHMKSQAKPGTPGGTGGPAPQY

[3] = biological target: T2, Dual specificity mitogen-activated protein kinase kinase 6 (Homo sapiens) (UniProt P52564); assay: Inhibition of MEK6 (unknown origin) assessed as residual activity at 1000 nM by KINOMEscan analysis relative to control
T2 sequence (whole entry): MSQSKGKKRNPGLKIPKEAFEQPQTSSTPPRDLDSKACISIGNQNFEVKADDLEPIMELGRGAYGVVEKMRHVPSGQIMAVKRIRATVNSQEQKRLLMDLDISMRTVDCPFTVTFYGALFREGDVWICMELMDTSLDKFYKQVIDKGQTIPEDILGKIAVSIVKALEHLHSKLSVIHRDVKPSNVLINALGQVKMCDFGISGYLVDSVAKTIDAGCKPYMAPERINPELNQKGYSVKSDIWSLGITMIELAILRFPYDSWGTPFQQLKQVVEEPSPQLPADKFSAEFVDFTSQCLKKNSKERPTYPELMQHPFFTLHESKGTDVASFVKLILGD

[4] = biological target: Receptor-interacting serine/threonine-protein kinase 2 (Homo sapiens) (UniProt O43353); assay: Inhibition of RIPK2 (unknown origin) assessed as residual activity at 1000 nM by KINOMEscan analysis relative to control
Sequence of Receptor-interacting serine/threonine-protein kinase 2 (Homo sapiens) (O43353 whole entry, the tested form may be a part): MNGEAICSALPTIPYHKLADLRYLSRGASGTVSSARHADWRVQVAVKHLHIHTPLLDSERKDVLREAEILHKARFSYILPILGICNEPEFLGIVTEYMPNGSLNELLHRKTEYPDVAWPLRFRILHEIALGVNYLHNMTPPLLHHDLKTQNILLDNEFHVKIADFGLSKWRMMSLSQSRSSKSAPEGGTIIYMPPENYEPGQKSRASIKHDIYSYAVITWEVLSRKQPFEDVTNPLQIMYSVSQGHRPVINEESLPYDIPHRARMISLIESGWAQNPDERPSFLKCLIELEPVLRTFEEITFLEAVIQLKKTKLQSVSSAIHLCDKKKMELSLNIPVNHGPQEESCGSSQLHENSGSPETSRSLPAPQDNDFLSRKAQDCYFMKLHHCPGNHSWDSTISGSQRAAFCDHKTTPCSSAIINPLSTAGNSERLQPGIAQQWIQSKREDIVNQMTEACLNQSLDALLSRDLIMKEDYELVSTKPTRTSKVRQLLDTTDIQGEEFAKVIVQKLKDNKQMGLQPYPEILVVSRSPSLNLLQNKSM

[5] = biological target: Ribosomal protein S6 kinase alpha-3 (Homo sapiens) (UniProt P51812); assay: Inhibition of N-terminal RSK2 kinetic domain 1 (unknown origin) assessed as residual activity at 1000 nM by KINOMEscan analysis relative to control
Sequence of Ribosomal protein S6 kinase alpha-3 (Homo sapiens) (P51812 whole entry, the tested form may be a part): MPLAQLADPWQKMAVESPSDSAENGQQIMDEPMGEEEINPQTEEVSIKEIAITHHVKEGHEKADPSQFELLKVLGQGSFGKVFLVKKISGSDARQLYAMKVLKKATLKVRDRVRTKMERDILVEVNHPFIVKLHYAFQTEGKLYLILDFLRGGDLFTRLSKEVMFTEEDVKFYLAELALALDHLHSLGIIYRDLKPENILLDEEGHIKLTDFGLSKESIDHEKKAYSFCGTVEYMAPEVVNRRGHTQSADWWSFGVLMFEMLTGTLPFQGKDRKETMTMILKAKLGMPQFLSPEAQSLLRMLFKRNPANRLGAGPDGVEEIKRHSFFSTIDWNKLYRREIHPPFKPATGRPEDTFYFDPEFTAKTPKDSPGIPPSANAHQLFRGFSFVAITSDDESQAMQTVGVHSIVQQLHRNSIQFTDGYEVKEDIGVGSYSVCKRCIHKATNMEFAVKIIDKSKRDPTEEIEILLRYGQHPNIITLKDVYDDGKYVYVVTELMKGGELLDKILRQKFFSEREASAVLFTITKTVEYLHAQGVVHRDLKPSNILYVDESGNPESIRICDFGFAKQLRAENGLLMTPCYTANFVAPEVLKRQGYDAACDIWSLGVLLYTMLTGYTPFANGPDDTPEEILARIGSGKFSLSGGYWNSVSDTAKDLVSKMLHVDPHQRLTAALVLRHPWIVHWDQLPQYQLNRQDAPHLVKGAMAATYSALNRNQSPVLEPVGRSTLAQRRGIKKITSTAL

[6] = biological target: Insulin-like growth factor 1 receptor (Homo sapiens) (UniProt P08069); assay: Inhibition of IGF1R (unknown origin) assessed as residual activity at 1000 nM by KINOMEscan analysis relative to control
Sequence of Insulin-like growth factor 1 receptor (Homo sapiens) (P08069 31-736 limits assumed): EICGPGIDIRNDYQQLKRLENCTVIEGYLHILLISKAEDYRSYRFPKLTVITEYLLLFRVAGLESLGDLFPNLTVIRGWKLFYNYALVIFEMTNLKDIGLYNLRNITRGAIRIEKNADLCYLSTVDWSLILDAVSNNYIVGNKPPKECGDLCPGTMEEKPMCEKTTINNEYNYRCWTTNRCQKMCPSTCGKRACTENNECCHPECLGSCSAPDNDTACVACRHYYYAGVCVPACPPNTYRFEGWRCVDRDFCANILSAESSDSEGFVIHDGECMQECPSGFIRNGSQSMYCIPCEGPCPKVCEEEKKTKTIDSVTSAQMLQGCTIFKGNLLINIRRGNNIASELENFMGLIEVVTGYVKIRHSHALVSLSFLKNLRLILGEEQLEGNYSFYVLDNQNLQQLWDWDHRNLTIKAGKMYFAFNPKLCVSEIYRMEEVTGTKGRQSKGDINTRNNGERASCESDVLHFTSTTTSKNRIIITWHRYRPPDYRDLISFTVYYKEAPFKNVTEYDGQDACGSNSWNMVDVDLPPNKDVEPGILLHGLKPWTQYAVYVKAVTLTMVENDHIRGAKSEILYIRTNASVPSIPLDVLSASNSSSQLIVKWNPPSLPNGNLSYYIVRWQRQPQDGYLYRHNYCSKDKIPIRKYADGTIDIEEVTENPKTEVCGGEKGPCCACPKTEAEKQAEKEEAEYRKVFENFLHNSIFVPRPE
Sequence of Insulin-like growth factor 1 receptor (Homo sapiens) (P08069 741-1367 limits assumed): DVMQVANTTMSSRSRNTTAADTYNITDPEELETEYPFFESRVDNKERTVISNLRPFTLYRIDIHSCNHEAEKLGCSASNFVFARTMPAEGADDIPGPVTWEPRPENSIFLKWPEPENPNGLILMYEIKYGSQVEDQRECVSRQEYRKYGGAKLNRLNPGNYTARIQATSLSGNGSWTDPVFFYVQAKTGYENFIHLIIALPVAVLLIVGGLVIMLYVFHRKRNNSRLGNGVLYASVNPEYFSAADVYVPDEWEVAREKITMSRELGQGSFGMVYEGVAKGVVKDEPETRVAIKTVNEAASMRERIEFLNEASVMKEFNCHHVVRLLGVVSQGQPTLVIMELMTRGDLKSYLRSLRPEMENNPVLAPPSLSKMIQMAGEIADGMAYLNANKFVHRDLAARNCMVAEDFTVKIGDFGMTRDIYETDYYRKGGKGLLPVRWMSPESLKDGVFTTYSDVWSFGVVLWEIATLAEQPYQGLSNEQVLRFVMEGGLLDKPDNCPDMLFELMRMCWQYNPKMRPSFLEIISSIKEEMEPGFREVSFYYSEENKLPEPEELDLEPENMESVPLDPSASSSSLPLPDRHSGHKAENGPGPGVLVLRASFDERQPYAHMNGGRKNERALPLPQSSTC

[7] = system: Tyrosine-protein kinase ABL1 (Homo sapiens), P00519 [F317I]; assay: Inhibition of nonphosphorylated ABL1 F317I mutant (unknown origin) assessed as residual activity at 1000 nM by KINOMEscan analysis relative to control
[8] = biological target: 5'-AMP-activated protein kinase catalytic subunit alpha-2 (Homo sapiens) (UniProt P54646); assay: Inhibition of AMPK-alpha2 (unknown origin) assessed as residual activity at 1000 nM by KINOMEscan analysis relative to control
Sequence of 5'-AMP-activated protein kinase catalytic subunit alpha-2 (Homo sapiens) (P54646 whole entry, looked up): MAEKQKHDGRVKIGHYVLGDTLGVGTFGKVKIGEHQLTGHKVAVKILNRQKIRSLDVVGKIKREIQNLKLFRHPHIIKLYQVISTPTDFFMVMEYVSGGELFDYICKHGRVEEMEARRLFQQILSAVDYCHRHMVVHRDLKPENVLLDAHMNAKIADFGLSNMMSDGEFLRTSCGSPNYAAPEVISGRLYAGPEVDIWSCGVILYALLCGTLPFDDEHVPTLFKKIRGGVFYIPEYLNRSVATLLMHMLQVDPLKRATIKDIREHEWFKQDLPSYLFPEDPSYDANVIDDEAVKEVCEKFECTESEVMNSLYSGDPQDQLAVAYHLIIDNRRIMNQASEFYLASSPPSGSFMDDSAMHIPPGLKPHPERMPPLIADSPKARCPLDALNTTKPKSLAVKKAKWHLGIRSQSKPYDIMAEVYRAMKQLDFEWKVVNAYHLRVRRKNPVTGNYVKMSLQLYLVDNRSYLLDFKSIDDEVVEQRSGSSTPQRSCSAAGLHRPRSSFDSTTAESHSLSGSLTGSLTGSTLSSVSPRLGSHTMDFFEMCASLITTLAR

[9] = biological target: Mitogen-activated protein kinase 4 (Homo sapiens) (UniProt P31152); assay: Inhibition of ERK4 (unknown origin) assessed as residual activity at 1000 nM by KINOMEscan analysis relative to control
Sequence of Mitogen-activated protein kinase 4 (Homo sapiens) (P31152 whole entry): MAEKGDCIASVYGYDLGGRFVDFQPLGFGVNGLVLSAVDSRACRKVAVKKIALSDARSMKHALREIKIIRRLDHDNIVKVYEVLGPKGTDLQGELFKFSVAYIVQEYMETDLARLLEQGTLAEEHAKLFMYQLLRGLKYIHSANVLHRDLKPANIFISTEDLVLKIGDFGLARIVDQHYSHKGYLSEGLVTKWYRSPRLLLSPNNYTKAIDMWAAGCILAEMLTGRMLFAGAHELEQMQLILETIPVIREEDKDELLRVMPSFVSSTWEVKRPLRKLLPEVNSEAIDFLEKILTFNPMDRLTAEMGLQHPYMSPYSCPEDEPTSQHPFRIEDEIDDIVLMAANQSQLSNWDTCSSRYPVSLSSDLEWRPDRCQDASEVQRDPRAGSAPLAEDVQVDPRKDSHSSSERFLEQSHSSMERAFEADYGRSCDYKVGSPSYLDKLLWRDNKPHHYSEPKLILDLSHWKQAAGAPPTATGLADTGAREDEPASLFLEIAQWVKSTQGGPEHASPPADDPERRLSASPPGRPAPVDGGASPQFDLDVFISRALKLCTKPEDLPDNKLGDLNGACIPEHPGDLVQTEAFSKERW

[10] = system: Epidermal growth factor receptor (Homo sapiens), P00533 [UNDEFINED MUTATION]; assay: Inhibition of EGFR E746-A750del mutant (unknown origin) assessed as residual activity at 1000 nM by KINOMEscan analysis relative to control
[11] = biological target: T3, Serine/threonine-protein kinase 17A (Homo sapiens) (UniProt Q9UEE5); assay: Inhibition of DRAK1 (unknown origin) assessed as residual activity at 1000 nM by KINOMEscan analysis relative to control
T3 sequence (whole entry): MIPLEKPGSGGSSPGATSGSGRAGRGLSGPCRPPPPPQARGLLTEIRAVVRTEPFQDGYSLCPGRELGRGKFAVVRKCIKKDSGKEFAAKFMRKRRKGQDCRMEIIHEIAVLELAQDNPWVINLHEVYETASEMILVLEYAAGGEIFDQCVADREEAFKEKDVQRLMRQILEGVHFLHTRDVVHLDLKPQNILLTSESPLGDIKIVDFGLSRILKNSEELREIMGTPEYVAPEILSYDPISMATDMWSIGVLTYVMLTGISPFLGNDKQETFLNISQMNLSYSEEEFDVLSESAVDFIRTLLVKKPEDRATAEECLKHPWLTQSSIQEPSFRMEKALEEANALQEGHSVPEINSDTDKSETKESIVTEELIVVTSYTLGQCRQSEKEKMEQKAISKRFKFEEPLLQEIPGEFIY

Sequence of Receptor-type tyrosine-protein kinase FLT3 (Homo sapiens) (P36888 whole entry): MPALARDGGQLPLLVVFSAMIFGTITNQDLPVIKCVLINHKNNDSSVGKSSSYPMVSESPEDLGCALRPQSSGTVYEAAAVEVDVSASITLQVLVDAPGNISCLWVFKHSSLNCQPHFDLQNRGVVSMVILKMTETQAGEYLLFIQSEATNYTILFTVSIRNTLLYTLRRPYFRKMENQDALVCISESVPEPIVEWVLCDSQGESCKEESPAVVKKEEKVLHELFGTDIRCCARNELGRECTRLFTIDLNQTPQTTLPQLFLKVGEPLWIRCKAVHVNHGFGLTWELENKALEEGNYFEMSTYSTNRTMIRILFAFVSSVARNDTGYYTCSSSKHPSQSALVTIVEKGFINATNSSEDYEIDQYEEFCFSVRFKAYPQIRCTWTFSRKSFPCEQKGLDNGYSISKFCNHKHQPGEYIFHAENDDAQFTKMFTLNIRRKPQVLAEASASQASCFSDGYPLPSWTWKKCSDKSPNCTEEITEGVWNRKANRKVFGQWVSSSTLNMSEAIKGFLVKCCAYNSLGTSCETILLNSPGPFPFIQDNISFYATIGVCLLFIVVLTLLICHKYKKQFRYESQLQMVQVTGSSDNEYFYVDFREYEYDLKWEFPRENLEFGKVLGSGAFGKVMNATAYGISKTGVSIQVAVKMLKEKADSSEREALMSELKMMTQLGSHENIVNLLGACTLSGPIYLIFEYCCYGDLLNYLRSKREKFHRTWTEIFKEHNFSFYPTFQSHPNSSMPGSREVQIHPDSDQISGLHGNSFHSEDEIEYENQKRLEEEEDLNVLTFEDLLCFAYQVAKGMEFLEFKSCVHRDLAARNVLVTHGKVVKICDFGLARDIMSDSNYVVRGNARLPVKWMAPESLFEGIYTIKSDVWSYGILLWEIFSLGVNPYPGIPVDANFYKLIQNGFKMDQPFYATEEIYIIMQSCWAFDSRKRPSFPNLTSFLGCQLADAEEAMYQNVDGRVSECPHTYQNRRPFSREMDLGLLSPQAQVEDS

Row | Compound | Activity [1] [%] | Activity [2] [%] | Activity [3] [%] | Activity [4] [%] | Activity [5] [%] | Activity [6] [%] | Activity [7] [%] | Activity [8] [%] | Activity [9] [%] | Activity [10] [%] | Activity [11] [%]
1 | COc1cc2ncnc(N[C@H](C)c3cccc4ccccc34)c2cc1OC | 93 | 99 | 100 | 99 | 95 | 100 | 86 | 98 | 89 | 5.9 | 100
2 | COc1cc2nc(C)nc(N[C@H](C)c3cccc(-c4cn[nH]c4)c3)c2cc1OC | 78 | 45 | 91 | 73 | 60 | 100 | 84 | 81 | 92 | 100 | 87
